The results in this text go back to ChEMBL document CHEMBL1150783, “In vitro activities of CG400549, a novel FabI inhibitor, against recently isolated clinical staphylococcal strains in Korea” (2007).

In brackets after ≈: the same amount, converted by molar mass. Activity calls are given as the source filed them.

In assay [1] the test system is Staphylococcus aureus. As to the kind of experiment: Antibacterial activity against methicillin-resistant Staphylococcus aureus isolate assessed as percent susceptible isolates by CLSI dilution method. The assay is classed as functional.
Assay [2] deals with Staphylococcus aureus. As to the kind of experiment: Antibacterial activity against methicillin-resistant Staphylococcus aureus by CLSI dilution method. The assay is classed as functional.
The test system of assay [3] is Staphylococcus aureus. As to the kind of experiment: Antibacterial activity against methicillin-susceptible Staphylococcus aureus isolate by CLSI dilution method. The assay is classed as functional.
The subject of assay [4] is Staphylococcus aureus. Description: (§1) Antibacterial activity against methicillin-resistant Staphylococcus aureus isolate assessed as percent resistant isolates by CLSI dilution method. The assay is classed as functional.
For assay [5], the system named is Staphylococcus aureus. The description is as §1. The class given is functional. This is another data set of the same source.
The test system of assay [6] is Staphylococcus sp. Description: Antibacterial activity against methicillin-resistant coagulase-negative Staphylococcus sp. assessed as percent resistant isolates by CLSI dilution method. The assay is classed as functional.
Assay [7] deals with Staphylococcus aureus. As to the kind of experiment: Antibacterial activity against methicillin-susceptible Staphylococcus aureus isolate assessed as […] isolates by CLSI dilution method. The class given is functional.
Assay [8] relates to Staphylococcus sp. As to the kind of experiment: Antibacterial activity against methicillin-susceptible coagulase-negative Staphylococcus sp. by CLSI dilution method. The class given is functional.
The test system of assay [9] is Staphylococcus sp. Description: (§2) Antibacterial activity against methicillin-susceptible coagulase-negative Staphylococcus sp. assessed as percent susceptible isolates by CLSI dilution method. The assay is classed as functional.
In assay [10] the test system is Staphylococcus sp. As to the kind of experiment: Antibacterial activity against methicillin-resistant coagulase-negative Staphylococcus sp. by CLSI dilution method. The class given is functional.
Assay [11] deals with Staphylococcus sp. The assay is described as §2. The class given is functional. The source holds these as a separate data set.
In assay [12] the test system is Staphylococcus sp. Description: Antibacterial activity against methicillin-susceptible coagulase-negative Staphylococcus sp. assessed as percent resistant isolates by CLSI dilution method. The assay is classed as functional.
For assay [13], the system named is Morganella morganii. As to the kind of experiment: Antibacterial activity against Morganella morganii by CLSI dilution method. The class given is functional, organism-based.
Assay [14] relates to Staphylococcus hominis. Description: Antibacterial activity against methicillin-susceptible coagulase-negative Staphylococcus hominis by CLSI dilution method. The assay is classed as functional.
Assay [15] relates to Enterobacter cloacae. As to the kind of experiment: Antibacterial activity against sEnterobacter cloacae by CLSI dilution method. The class given is functional, organism-based.
Assay [16] has as its system Campylobacter fetus. Description: Antibacterial activity against Campylobacter fetus by CLSI dilution method. The class given is functional, organism-based.
Assay [17] concerns Aeromonas sp. Description: Antibacterial activity against Aeromonas sp. by CLSI dilution method. The assay is classed as functional, organism-based.
Assay [18] has as its system Staphylococcus epidermidis. Description: Antibacterial activity against methicillin-susceptible coagulase-negative Staphylococcus epidermidis by CLSI dilution method. The assay is classed as functional.
Assay [19] has as its system Acinetobacter baumannii. As to the kind of experiment: Antibacterial activity against sAcinetobacter baumannii by CLSI dilution method. The assay is classed as functional, organism-based.
Assay [20] has as its system Listeria monocytogenes. Description: Antibacterial activity against Listeria monocytogenes by CLSI dilution method. The assay is classed as functional, organism-based.
Assay [21] has as its system Neisseria gonorrhoeae. Description: Antibacterial activity against Neisseria gonorrhoeae by CLSI dilution method. The class given is functional, organism-based.
Assay [22] deals with Streptococcus. As to the kind of experiment: Antibacterial activity against Streptococcus by CLSI dilution method. The assay is classed as functional, organism-based.
Assay [23] relates to Serratia marcescens. As to the kind of experiment: Antibacterial activity against Serratia marcescens by CLSI dilution method. The class given is functional, organism-based.
In assay [24] the test system is Corynebacterium. As to the kind of experiment: Antibacterial activity against […] by CLSI dilution method. The class given is functional, organism-based.
The subject of assay [25] is Staphylococcus hominis. As to the kind of experiment: Antibacterial activity against methicillin-resistant coagulase-negative Staphylococcus hominis by CLSI dilution method. The assay is classed as functional.
Assay [26] has as its system Klebsiella pneumoniae. As to the kind of experiment: Antibacterial activity against Klebsiella pneumoniae by CLSI dilution method. The class given is functional, organism-based.
Assay [27] concerns Enterococcus. As to the kind of experiment: Antibacterial activity against Enterococcus by CLSI dilution method. The class given is functional, organism-based.
Assay [28] has as its system Escherichia coli. As to the kind of experiment: Antibacterial activity against sEscherichia coli by CLSI dilution method. The assay is classed as functional, organism-based.
Assay [29] has as its system Staphylococcus simulans. Description: Antibacterial activity against methicillin-susceptible coagulase-negative Staphylococcus simulans by CLSI dilution method. The assay is classed as functional.
Assay [30] relates to Pseudomonas aeruginosa. As to the kind of experiment: Antibacterial activity against sPseudomonas aeruginosa by CLSI dilution method. The assay is classed as functional, organism-based.
In assay [31] the test system is Staphylococcus haemolyticus. As to the kind of experiment: Antibacterial activity against methicillin-resistant coagulase-negative Staphylococcus haemolyticus by CLSI dilution method. The assay is classed as functional.
The test system of assay [32] is Moraxella catarrhalis. As to the kind of experiment: Antibacterial activity against Moraxella catarrhalis by CLSI dilution method. The class given is functional, organism-based.
For assay [33], the system named is Staphylococcus haemolyticus. Description: Antibacterial activity against methicillin-susceptible coagulase-negative Staphylococcus haemolyticus by CLSI dilution method. The assay is classed as functional.
Assay [34] concerns Staphylococcus saprophyticus. Description: Antibacterial activity against methicillin-resistant coagulase-negative Staphylococcus saprophyticus by CLSI dilution method. The class given is functional.
Assay [35] concerns Citrobacter freundii. As to the kind of experiment: Antibacterial activity against Citrobacter freundii by CLSI dilution method. The class given is functional, organism-based.
Assay [36] deals with Nocardia sp. Description: Antibacterial activity against Nocardia sp. by CLSI dilution method. The class given is functional, organism-based.
In assay [37] the test system is Vibrio sp. Description: Antibacterial activity against Vibrio sp. by CLSI dilution method. The class given is functional, organism-based.
The subject of assay [38] is Mammaliicoccus sciuri. Description: Antibacterial activity against methicillin-resistant coagulase-negative Staphylococcus sciuri by CLSI dilution method. The assay is classed as functional.
Assay [39] concerns Helicobacter pylori. Description: Antibacterial activity against Helicobacter pylori by CLSI dilution method. The assay is classed as functional, organism-based.
Assay [40] has as its system Haemophilus influenzae. Description: Antibacterial activity against sHaemophilus influenzae by CLSI dilution method. The assay is classed as functional, organism-based.
Assay [41] relates to Staphylococcus epidermidis. Description: Antibacterial activity against methicillin-resistant coagulase-negative Staphylococcus epidermidis by CLSI dilution method. The class given is functional.

For orientation: MIC50 means the lowest concentration that inhibits either 50% of growth or 50% of the strains tested, depending on the study. A low value points to higher susceptibility. As a reminder, the MIC90 is an inhibitory concentration at the 90% level, which refers to growth in some studies and to a panel of isolates in others. Lower therefore signals greater potency. On to `CN(C)[C@@H]1C(O)=C(C(N)=O)C(=O)[C@@]2(O)C(O)=C3C(=O)c4c(O)cccc4[C@@](C)(O)[C@H]3C[C@@H]12` [TETRACYCLINE], for which the Activity was determined as 25% in assay [1]; 12% in [4]; 75% in [5]; 31% in assay [6]; 88% in assay [7]; 78% in assay [9]. The Activity in assay [11] was 67%; in [12] it was 22%. Moreover, the MIC50 was 64 µg/mL (≈ 144 µM) in assay [2], 1 µg/mL (≈ 2.25 µM) in assay [3], 0.5 µg/mL (≈ 1.13 µM) in assay [8] and 2 µg/mL (≈ 4.5 µM) in assay [10]. In addition, the MIC90 in [2] was 128 µg/mL (≈ 288 µM); in assay [3], 32 µg/mL (≈ 72 µM); in assay [8], 64 µg/mL (≈ 144 µM); in assay [10], 128 µg/mL (≈ 288 µM).
As to `C[C@H]1COc2c(N3CCN(C)CC3)c(F)cc3c(=O)c(C(=O)O)cn1c23.C[C@H]1COc2c(N3CCN(C)CC3)c(F)cc3c(=O)c(C(=O)O)cn1c23.O` [LEVOFLOXACIN], the Activity in assay [1] stood at 7%; in assay [4] it was 0%; in assay [5] it was 93%; in [6], 60%; in assay [7], 100%; in [9] it was 100%. The Activity in [11] is 35%; in assay [12] it was 0%. Also, the MIC50 was 16 µg/mL in assay [2], 0.25 µg/mL in assay [3], 0.25 µg/mL in [8] and 4 µg/mL in [10]. Also, the MIC90 is more than 128 µg/mL in assay [2], 0.5 µg/mL in assay [3], 0.25 µg/mL in [8] and 32 µg/mL in assay [10].
Consider `Cc1onc(-c2ccccc2)c1C(=O)N[C@@H]1C(=O)N2[C@@H]1SC(C)(C)[C@@H]2C(=O)O` [OXACILLIN], for which the Activity in assay [1] stood at 0%; in assay [4], 0%; in [5], 100%; in assay [6], 100%; in assay [7] it was 100%; in [9], 100%. Further, the Activity in assay [11] and in assay [12] was 0% in each case. Besides, the MIC50 in [2] was more than 128 µg/mL; in [3] it was 0.5 µg/mL (≈ 1.25 µM); in assay [8], 0.12 µg/mL (≈ 0.299 µM); in assay [10], 32 µg/mL (≈ 79.7 µM). The MIC90 in assay [2] was more than 128 µg/mL; in [3], 0.5 µg/mL (≈ 1.25 µM); in assay [8], 0.25 µg/mL (≈ 0.623 µM); in [10], more than 128 µg/mL.
One may read the MIC as the smallest concentration in the dilution series that meets the test's criterion for growth inhibition. A lower MIC goes with greater potency. As to `Cc1c(N)cccc1Cn1ccc(OCCc2cccs2)cc1=O` [CG-400549], the result in assay [13], in [15], in [16], in [17], in assay [19] and in assay [20] was Active. Further, the outcome in assay [21], in assay [22], in assay [23], in [24], in assay [26] and in assay [27] was Active. For the same molecule, the outcome in assay [28], in assay [30], in [32], in assay [35], in [36] and in assay [37] was Active. The outcome in assay [39] and in assay [40] was Active. Besides, the MIC in assay [14] was found to be 4 µg/mL (≈ 11.7 µM); in assay [18], 8 µg/mL (≈ 23.5 µM); in assay [25], 4 µg/mL (≈ 11.7 µM); in assay [29] it was 4 µg/mL (≈ 11.7 µM); in assay [31], 2 µg/mL (≈ 5.87 µM); in [33], 2 µg/mL (≈ 5.87 µM). For the same molecule, the MIC in assay [34] turned out to be 8 µg/mL (≈ 23.5 µM); in [38] it was 4 µg/mL (≈ 11.7 µM); in assay [41] it was 4 µg/mL (≈ 11.7 µM). Besides, the MIC50 in assay [2], in assay [3], in assay [8] and in assay [10] was 0.5 µg/mL (≈ 1.47 µM) each time. Also, the MIC90 in [2] worked out at 0.5 µg/mL (≈ 1.47 µM); in assay [3], 0.5 µg/mL (≈ 1.47 µM); in [8], 8 µg/mL (≈ 23.5 µM); in assay [10] it was 4 µg/mL (≈ 11.7 µM).
